Laboratory results as given in BindingDB's records for patent US20240101544 (2024).

Legend:
[1] = molecular target: Glutaminyl-peptide cyclotransferase (Homo sapiens, UniProt Q16769); assay: QPCT Enzymatic Activity Assay
Experimental: QPCT activity was measured in a coupled-enzyme assay using the QPCT substrate, glutamine-7-amido-4-methylcoumarin (H-Gln-AMC, Bachem), which is converted to pyroglutamyl-AMC by QPCT. Pyroglutamyl-AMC is then converted to the fluorescent molecule, AMC, by incubation with the human enzyme pyroglutamyl peptidase-1 (PGPEP-1). […] Following the incubation, H-Gln-AMC substrate was diluted in assay buffer and added to each well for a final concentration of 10 μM. The reaction was incubated for 60 min at 37° C., before stopping it by boiling at 100° C. for 5 minutes and cooling the plate at 4° C. for 3 minutes. […] Following incubation, the fluorescence was measured with a plate reader using excitation at 380 nm and emission at 460 nm.

[2] = molecular target: Glutaminyl-peptide cyclotransferase-like protein (Homo sapiens, UniProt Q9NXS2); assay: QPCTL Enzymatic Activity Assay
Sequence of Glutaminyl-peptide cyclotransferase-like protein (Q9NXS2 whole entry): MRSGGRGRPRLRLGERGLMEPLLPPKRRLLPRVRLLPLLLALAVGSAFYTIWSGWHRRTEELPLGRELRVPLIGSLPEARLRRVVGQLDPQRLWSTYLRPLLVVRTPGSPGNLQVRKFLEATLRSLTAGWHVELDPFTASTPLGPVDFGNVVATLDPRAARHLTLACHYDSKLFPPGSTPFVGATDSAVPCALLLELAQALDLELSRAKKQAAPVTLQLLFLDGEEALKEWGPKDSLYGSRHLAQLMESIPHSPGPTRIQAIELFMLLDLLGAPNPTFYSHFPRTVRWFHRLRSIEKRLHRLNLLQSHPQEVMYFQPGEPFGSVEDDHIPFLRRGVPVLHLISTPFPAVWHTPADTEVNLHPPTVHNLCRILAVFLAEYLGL
Experimental: QPCTL activity was measured in a coupled-enzyme assay using the QPCTL substrate, glutamine-7-amido-4-methylcoumarin (H-Gln-AMC, Bachem), which is converted to pyroglutamyl-AMC by QPCTL. Pyroglutamyl-AMC is then converted to the fluorescent molecule, AMC, by incubation with the human enzyme pyroglutamyl peptidase-1. […] Final concentrations of DMSO and test compounds were 2% and 30-100 μM, respectively. Following the incubation, H-Gln-AMC substrate was diluted in assay buffer and added to each well for a final concentration of 10 μM. The reaction was incubated for 60 min at 37° C., before stopping it by boiling at 100° C. for 5 minutes and cooling the plate at 4° C. for 3 minutes. […] Following incubation, the fluorescence was measured with a plate reader using excitation at 380 nm and emission at 460 nm.

Sequence of Glutaminyl-peptide cyclotransferase (Q16769 whole entry): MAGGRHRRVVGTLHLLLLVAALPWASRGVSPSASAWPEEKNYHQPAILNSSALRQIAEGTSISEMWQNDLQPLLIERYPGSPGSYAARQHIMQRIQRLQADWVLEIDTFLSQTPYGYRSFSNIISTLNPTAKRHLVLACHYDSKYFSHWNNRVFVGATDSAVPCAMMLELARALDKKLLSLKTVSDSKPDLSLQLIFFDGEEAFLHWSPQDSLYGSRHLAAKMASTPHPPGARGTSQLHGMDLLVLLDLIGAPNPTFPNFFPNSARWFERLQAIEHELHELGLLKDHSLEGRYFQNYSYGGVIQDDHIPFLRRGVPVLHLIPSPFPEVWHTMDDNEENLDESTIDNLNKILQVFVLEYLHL

IC50 [1]: < 0.1 µM
IC50 [2]: < 0.1 µM
Structure (SMILES): Cn1cncc1C1CCN(c2c(C#N)ccnc2-c2ccc(F)nc2)CC1 [US20240101544, Example 134]
